Measured values reported in the CheMixHub viscosity set.
± gives the uncertainty stated by the source.

Experiment: xn = mol fraction of the nth substance listed

Nc1ccccc1 + CCCCCCCCO
viscosity [mPa·s], 100 kPa
Conditions	x1 = 0.0862	x1 = 0.1575	x1 = 0.2382	x1 = 0.3514	x1 = 0.4471	x1 = 0.5637	x1 = 0.6558	x1 = 0.7476	x1 = 0.8555	x1 = 0.9421
293.15 K	8.01 ± 0.64	7.27 ± 0.58	6.6 ± 0.53	5.83 ± 0.47	5.28 ± 0.42	4.66 ± 0.37	4.4 ± 0.35	4.19 ± 0.34	4.03 ± 0.32	4.14 ± 0.33
303.15 K	5.66 ± 0.45	5.15 ± 0.41	4.7 ± 0.38	4.15 ± 0.33	3.77 ± 0.3	3.36 ± 0.27	3.15 ± 0.25	3.03 ± 0.24	2.93 ± 0.24	3 ± 0.24
313.15 K	4.11 ± 0.33	3.75 ± 0.3	3.47 ± 0.28	3.1 ± 0.25	2.85 ± 0.23	2.57 ± 0.21	2.43 ± 0.2	2.34 ± 0.19	2.3 ± 0.18	2.36 ± 0.19
323.15 K	3.09 ± 0.25	2.85 ± 0.23	2.63 ± 0.21	2.37 ± 0.19	2.18 ± 0.17	1.98 ± 0.16	1.89 ± 0.15	1.83 ± 0.15	1.81 ± 0.15	1.86 ± 0.15

CCNCC + CCCCCCCO
viscosity [mPa·s], 100 kPa
Conditions	x1 = 0.0806	x1 = 0.1606	x1 = 0.2415	x1 = 0.3492	x1 = 0.4394	x1 = 0.5613	x1 = 0.6506	x1 = 0.7401	x1 = 0.8503	x1 = 0.9414
293.15 K	6.26 ± 0.5	5.55 ± 0.45	4.87 ± 0.39	4.03 ± 0.32	3.37 ± 0.27	2.55 ± 0.21	2.02 ± 0.16	1.52 ± 0.12	0.947 ± 0.077	0.532 ± 0.044
303.15 K	4.47 ± 0.36	3.94 ± 0.32	3.45 ± 0.28	2.83 ± 0.23	2.36 ± 0.19	1.78 ± 0.14	1.4 ± 0.11	1.07 ± 0.09	0.7 ± 0.06	0.43 ± 0.04
313.15 K	3.3 ± 0.27	2.91 ± 0.23	2.53 ± 0.2	2.07 ± 0.17	1.72 ± 0.14	1.3 ± 0.1	1.03 ± 0.08	0.79 ± 0.06	0.52 ± 0.04	0.35 ± 0.03
323.15 K	2.47 ± 0.2	2.17 ± 0.17	1.89 ± 0.15	1.54 ± 0.12	1.28 ± 0.1	0.97 ± 0.08	0.78 ± 0.06	0.6 ± 0.05	0.42 ± 0.03	0.3 ± 0.03

COCCOCCOCCOC + CCCCCCCO
101 kPa
Conditions	viscosity [mPa·s]
293.15 K, x1 = 0.05281	5.682 ± 0.06
293.15 K, x1 = 0.09018	5.069 ± 0.054
293.15 K, x1 = 0.2084	3.662 ± 0.039
293.15 K, x1 = 0.2924	3.185 ± 0.034
293.15 K, x1 = 0.4036	2.821 ± 0.03
293.15 K, x1 = 0.5165	2.541 ± 0.027
293.15 K, x1 = 0.5861	2.393 ± 0.026
293.15 K, x1 = 0.6984	2.25 ± 0.024
293.15 K, x1 = 0.8022	2.21 ± 0.024
293.15 K, x1 = 0.8977	2.195 ± 0.024
293.15 K, x1 = 0.9591	2.185 ± 0.024
303.15 K, x1 = 0.05495	4.164 ± 0.045
303.15 K, x1 = 0.08973	3.734 ± 0.04
303.15 K, x1 = 0.2069	2.83 ± 0.03
303.15 K, x1 = 0.2951	2.469 ± 0.027
303.15 K, x1 = 0.403	2.197 ± 0.024
303.15 K, x1 = 0.504	2.013 ± 0.022
303.15 K, x1 = 0.5851	1.916 ± 0.021
303.15 K, x1 = 0.705	1.813 ± 0.02
303.15 K, x1 = 0.7893	1.785 ± 0.019
303.15 K, x1 = 0.9012	1.776 ± 0.019
303.15 K, x1 = 0.9516	1.777 ± 0.019
313.15 K, x1 = 0.0542	3.158 ± 0.034
313.15 K, x1 = 0.09194	2.876 ± 0.031
313.15 K, x1 = 0.2077	2.266 ± 0.024
313.15 K, x1 = 0.2951	2 ± 0.022
313.15 K, x1 = 0.4053	1.782 ± 0.019
313.15 K, x1 = 0.5078	1.654 ± 0.018
313.15 K, x1 = 0.59	1.579 ± 0.017
313.15 K, x1 = 0.7035	1.515 ± 0.016
313.15 K, x1 = 0.795	1.483 ± 0.016
313.15 K, x1 = 0.9054	1.474 ± 0.016
313.15 K, x1 = 0.9487	1.471 ± 0.016

Nc1ccccc1 + CCCCCCCO
viscosity [mPa·s], 100 kPa
Conditions	x1 = 0.0821	x1 = 0.1633	x1 = 0.2429	x1 = 0.3578	x1 = 0.4421	x1 = 0.5517	x1 = 0.6514	x1 = 0.7434	x1 = 0.8522	x1 = 0.9421
293.15 K	6.21 ± 0.5	5.64 ± 0.45	5.21 ± 0.42	4.74 ± 0.38	4.45 ± 0.36	4.11 ± 0.33	3.94 ± 0.32	3.86 ± 0.31	3.86 ± 0.31	4.1 ± 0.33
303.15 K	4.48 ± 0.36	4.11 ± 0.33	3.82 ± 0.31	3.46 ± 0.28	3.23 ± 0.26	2.99 ± 0.24	2.86 ± 0.23	2.79 ± 0.22	2.82 ± 0.23	2.97 ± 0.24
313.15 K	3.31 ± 0.27	3.05 ± 0.24	2.85 ± 0.23	2.61 ± 0.21	2.46 ± 0.2	2.3 ± 0.18	2.22 ± 0.18	2.19 ± 0.18	2.22 ± 0.18	2.34 ± 0.19
323.15 K	2.51 ± 0.2	2.36 ± 0.19	2.2 ± 0.18	2.01 ± 0.16	1.91 ± 0.15	1.8 ± 0.14	1.75 ± 0.14	1.73 ± 0.14	1.75 ± 0.14	1.84 ± 0.15

CCNCC + CCCCCCO
viscosity [mPa·s], 100 kPa
Conditions	x1 = 0.0806	x1 = 0.1594	x1 = 0.2398	x1 = 0.3506	x1 = 0.4394	x1 = 0.559	x1 = 0.6502	x1 = 0.7392	x1 = 0.8506	x1 = 0.9401
293.15 K	4.73 ± 0.38	4.11 ± 0.33	3.54 ± 0.28	2.83 ± 0.23	2.32 ± 0.19	1.71 ± 0.14	1.32 ± 0.11	0.98 ± 0.08	0.65 ± 0.05	0.43 ± 0.04
303.15 K	3.45 ± 0.28	3.02 ± 0.24	2.59 ± 0.21	2.08 ± 0.17	1.7 ± 0.14	1.27 ± 0.1	1 ± 0.08	0.75 ± 0.06	0.52 ± 0.04	0.37 ± 0.03
313.15 K	2.58 ± 0.21	2.24 ± 0.18	1.92 ± 0.15	1.53 ± 0.12	1.25 ± 0.1	0.93 ± 0.08	0.73 ± 0.06	0.55 ± 0.04	0.398 ± 0.032	0.31 ± 0.03
323.15 K	1.97 ± 0.16	1.71 ± 0.14	1.46 ± 0.12	1.16 ± 0.09	0.95 ± 0.08	0.71 ± 0.06	0.56 ± 0.05	0.44 ± 0.04	0.33 ± 0.03	0.27 ± 0.02

Nc1ccccc1 + CCCCCCO
viscosity [mPa·s], 100 kPa
Conditions	293.15 K	303.15 K	313.15 K	323.15 K
x1 = 0.0816	4.79 ± 0.38	3.54 ± 0.28	2.65 ± 0.21	2.05 ± 0.16
x1 = 0.1448	–	3.327 ± 0.038	2.396 ± 0.028	–
x1 = 0.1533	4.4 ± 0.35	3.29 ± 0.26	2.48 ± 0.2	1.92 ± 0.15
x1 = 0.2422	4.1 ± 0.33	3.09 ± 0.25	2.33 ± 0.19	1.82 ± 0.15
x1 = 0.2758	–	2.857 ± 0.033	1.969 ± 0.023	–
x1 = 0.3514	3.81 ± 0.31	2.87 ± 0.23	2.21 ± 0.18	1.73 ± 0.14
x1 = 0.4176	–	2.453 ± 0.028	1.627 ± 0.019	–
x1 = 0.4449	3.64 ± 0.29	2.74 ± 0.22	2.12 ± 0.17	1.66 ± 0.13
x1 = 0.5246	–	2.213 ± 0.026	1.457 ± 0.017	–
x1 = 0.5571	3.55 ± 0.28	2.61 ± 0.21	2.04 ± 0.16	1.61 ± 0.13
x1 = 0.6037	–	2.119 ± 0.025	1.397 ± 0.017	–
x1 = 0.6483	3.52 ± 0.28	2.59 ± 0.21	2.03 ± 0.16	1.61 ± 0.13
x1 = 0.7131	–	2.101 ± 0.024	1.432 ± 0.017	–
x1 = 0.7361	3.55 ± 0.28	2.61 ± 0.21	2.05 ± 0.16	1.63 ± 0.13
x1 = 0.8283	–	2.283 ± 0.027	1.639 ± 0.019	–
x1 = 0.8542	3.73 ± 0.3	2.72 ± 0.22	2.16 ± 0.17	1.71 ± 0.14
x1 = 0.932	–	2.648 ± 0.031	1.979 ± 0.023	–
x1 = 0.9356	4.03 ± 0.32	2.93 ± 0.24	2.32 ± 0.19	1.84 ± 0.15
